ChEMBL document CHEMBL5385844, “Discovery of novel imidazole chemotypes as isoform-selective JNK3 inhibitors for the treatment of Alzheimer's disease” (Eur J Med Chem, 2023)
Calls of active or inactive are those of the source. The calls are words filed in the database; no cut-off is given here.

Key:
[1] = target: Mitogen-activated protein kinase 10 (Homo sapiens, UniProt P53779); experiment: Inhibition of human JNK3 incubated for 40 mins in presence of ATP and [gamma33P-ATP] by scintillation counting method; conditions: read-out: IC50
Mitogen-activated protein kinase 10, sequence (P53779 whole entry): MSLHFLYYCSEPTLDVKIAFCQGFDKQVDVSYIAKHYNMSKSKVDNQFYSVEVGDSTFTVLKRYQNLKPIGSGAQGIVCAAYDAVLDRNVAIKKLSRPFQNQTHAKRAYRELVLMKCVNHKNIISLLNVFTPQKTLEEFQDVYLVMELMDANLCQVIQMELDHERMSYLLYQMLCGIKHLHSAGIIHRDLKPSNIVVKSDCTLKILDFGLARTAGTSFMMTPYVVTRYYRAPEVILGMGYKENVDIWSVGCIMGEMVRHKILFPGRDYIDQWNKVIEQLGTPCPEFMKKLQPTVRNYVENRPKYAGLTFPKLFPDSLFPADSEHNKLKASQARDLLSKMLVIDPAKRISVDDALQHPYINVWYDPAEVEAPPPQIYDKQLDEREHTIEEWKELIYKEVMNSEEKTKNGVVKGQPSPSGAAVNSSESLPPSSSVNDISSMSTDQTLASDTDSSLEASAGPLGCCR

[2] = target: Mitogen-activated protein kinase 9 (Homo sapiens, UniProt P45984); experiment: Inhibition of human JNK2 incubated for 40 mins in presence of ATP and [gamma33P-ATP] by scintillation counting method
Mitogen-activated protein kinase 9, sequence (P45984 whole entry): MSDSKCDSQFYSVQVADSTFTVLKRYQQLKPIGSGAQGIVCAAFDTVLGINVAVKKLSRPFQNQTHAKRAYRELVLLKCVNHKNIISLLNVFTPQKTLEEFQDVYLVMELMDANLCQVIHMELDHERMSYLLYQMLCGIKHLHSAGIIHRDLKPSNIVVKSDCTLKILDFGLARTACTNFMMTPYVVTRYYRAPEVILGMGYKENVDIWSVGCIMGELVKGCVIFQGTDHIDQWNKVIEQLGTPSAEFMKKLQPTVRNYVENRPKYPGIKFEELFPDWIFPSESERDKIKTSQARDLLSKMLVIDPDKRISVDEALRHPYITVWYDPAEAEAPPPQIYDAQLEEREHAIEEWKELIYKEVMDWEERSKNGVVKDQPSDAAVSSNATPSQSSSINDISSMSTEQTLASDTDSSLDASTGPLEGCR

[3] = target: T1, Mitogen-activated protein kinase 8 (Homo sapiens, UniProt P45983); experiment: Inhibition of human JNK1 incubated for 40 mins in presence of ATP and [gamma33P-ATP] by scintillation counting method
T1 sequence (P45983 whole entry): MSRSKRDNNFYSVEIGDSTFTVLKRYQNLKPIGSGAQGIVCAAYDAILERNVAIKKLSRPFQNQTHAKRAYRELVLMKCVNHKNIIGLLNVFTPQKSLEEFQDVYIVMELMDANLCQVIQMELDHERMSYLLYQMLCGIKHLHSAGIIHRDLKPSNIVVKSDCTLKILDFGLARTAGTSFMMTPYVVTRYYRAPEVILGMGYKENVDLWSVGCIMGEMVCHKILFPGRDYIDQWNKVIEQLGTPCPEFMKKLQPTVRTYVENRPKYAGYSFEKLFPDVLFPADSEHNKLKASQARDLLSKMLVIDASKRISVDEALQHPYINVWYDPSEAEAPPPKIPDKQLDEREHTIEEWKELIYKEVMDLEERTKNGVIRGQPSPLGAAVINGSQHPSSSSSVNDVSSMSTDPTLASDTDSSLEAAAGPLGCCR

Cortical neurone [4] = experiment: Neuroprotective activity against Amyloid beta (1 to 42)-induced toxicity in rat cortical neuron assessed as cell viability measured after 24 to 48 hrs by MTT assay; format: functional, cell-based; conditions: time 24-48 hrs
[5] = target: T1, Mitogen-activated protein kinase 8; experiment: Inhibition of JNK1 (unknown origin) assessed as incorporation of 33P-ATP
Mus musculus [6] = experiment: Anti-alzheimer activity against APP/PS1 dE9 double transgenic mouse model assessed as time spent in platform quadrant at 10 mg/kg, po administered 3 times/week for 1 month and measured after 40 to 45 days of treatment by Morris water maze test (reference value: 15.94 +/- 2.08 sec); format: functional; conditions: time 1 months, 730 h
Mus musculus [7] = experiment: Anti-alzheimer activity against APP/PS1 dE9 double transgenic mouse model assessed as spontaneous alteration at 30 mg/kg, po administered 3 times/week for 1 month and measured after 27 days of treatment by Y-maze test (reference value: 45.51 +/- 2.92%); format: functional; conditions: time 1 months, 730 h
[8] = Toxicity in homozygous 3 x Tg mouse model assessed as visual inspection at 60 mg/kg, po daily for 2.2 months; format: organism-based; conditions: in vivo, 1606 h
Mus musculus [9] = experiment: Anti-alzheimer activity against APP/PS1 dE9 double transgenic mouse model assessed as time spent in platform quadrant at 30 mg/kg, po administered 3 times/week for 1 month and measured after 40 to 45 days of treatment by Morris water maze test (reference value: 15.94 +/- 2.08 sec); format: functional; conditions: time 1 months, 730 h
Mus musculus [10] = experiment: Anti-alzheimer activity against APP/PS1 dE9 double transgenic mouse model assessed as spontaneous alteration at 10 mg/kg, po administered 3 times/week for 1 month and measured after 27 days of treatment by Y-maze test (reference value: 45.51 +/- 2.92%); format: functional; conditions: time 1 months, 730 h
Cortical neurone [11] = experiment: Neuroprotective activity against Amyloid beta (1 to 42)-induced toxicity in rat cortical neuron assessed as cell viability at 20 uM measured after 24 hrs by MTT assay; format: functional; conditions: read-out: Activity
Mus musculus [12] = experiment: Anti-alzheimer activity against homozygous 3 x Tg mouse model assessed as spontaneous alteration at 60 mg/kg, po administered daily for 2.2 months and measured after 57 days of treatment by Y-maze test (reference value: 45.05 +/- 3.61%); format: functional; conditions: 1606 h
Mus musculus [13] = experiment: Anti-alzheimer activity against APP/PS1 dE9 double transgenic mouse model assessed as escape latency time at 30 mg/kg, po administered 3 times/week for 1 month and measured after 27 days of treatment by Passive avoidance test (reference value: 24.8 +/- 4.1 sec); format: functional; conditions: time 1 months, 730 h
Mus musculus [14] = experiment: Anti-alzheimer activity against APP/PS1 dE9 double transgenic mouse model assessed as escape latency time at 10 mg/kg, po administered 3 times/week for 1 month and measured after 27 days of treatment by Passive avoidance test (reference value: 24.8 +/- 4.1 sec); format: functional; conditions: time 1 months, 730 h
[15] = Apparent permeability across basolateral to apical side in human Caco-2 cells at 10 uM incubated for 1 hr by LC-MS/MS analysis; format: ADME, cell-based
[16] = AUC in Sprague-Dawley rat at 1 mg/kg, iv measured upto 24 hrs by UPLC analysis; format: ADME, organism-based; design: dose 1 mg/kg, time < 24 hrs, route iv; conditions: in vivo
[17] = Toxicity in APP/PS1 mouse assessed as abnormal symptoms at 60 mg/kg, po treated for 2 months; format: organism-based; conditions: in vivo, 1460 h
[18] = Toxicity in APP/PS1 mouse assessed as abnormal symptoms at 30 mg/kg, po treated for 2 months; format: organism-based; conditions: in vivo, 1460 h
[19] = Apparent permeability across apical to basolateral side in human Caco-2 cells at 10 uM incubated for 1 hr by LC-MS/MS analysis; format: ADME, cell-based
[20] = Drug uptake in Sprague-Dawley rat brain at 30 mg/kg, po measured at Tmax; format: ADME, organism-based; conditions: in vivo
[21] = Half life in Sprague-Dawley rat at 1 mg/kg, iv measured upto 24 hrs by UPLC analysis; format: ADME, organism-based; conditions: in vivo
[22] = Toxicity in APP/PS1 mouse assessed as weight change at 60 mg/kg, po treated for 2 months; format: organism-based; conditions: in vivo, 1460 h
[23] = Half life in Sprague-Dawley rat at 3 mg/kg, po measured upto 24 hrs by UPLC analysis; format: ADME, organism-based; conditions: in vivo
Cortical neurone [24] = experiment: Neuroprotective activity against Amyloid beta (1 to 42)-induced toxicity in rat cortical neuron assessed as cell viability at 20 uM measured after 48 hrs by MTT assay; format: functional; conditions: read-out: Activity
[25] = Tmax in Sprague-Dawley rat at 3 mg/kg, po measured upto 24 hrs by UPLC analysis; format: ADME, organism-based; conditions: in vivo
[26] = Toxicity in APP/PS1 mouse assessed as weight change at 30 mg/kg, po treated for 2 months; format: organism-based; conditions: in vivo, 1460 h
[27] = Cmax in Sprague-Dawley rat at 3 mg/kg, po measured upto 24 hrs by UPLC analysis; format: ADME, organism-based; design: dose 3 mg/kg, time < 24 hrs, route po; conditions: in vivo
Mus musculus [28] = experiment: Anti-alzheimer activity against homozygous 3 x Tg mouse model assessed as time spent in platform quadrant at 60 mg/kg, po administered daily for 2.2 months and measured after 68 to 73 days of treatment by Morris water maze test (reference value: 14.26 +/- 1.62 sec); format: functional; conditions: 1606 h
[29] = Brain to Plasma ratio in Sprague-Dawley rat at 30 mg/kg, po measured at Tmax; format: ADME, organism-based; conditions: read-out: BPR
[30] = Efflux ratio of apparent permeability basolateral to apical side over apical to basolateral side in human Caco-2 cells at 10 uM incubated for 1 hr by LC-MS/MS analysis; format: ADME, cell-based
[31] = Permeability of the compound by PAMPA-BBB assay; format: ADME; conditions: read-out: permeability
[32] = Oral bioavailability in Sprague-Dawley rat at 3 mg/kg measured upto 24 hrs by UPLC analysis; format: ADME, organism-based; conditions: in vivo
Mus musculus [33] = experiment: Anti-alzheimer activity against homozygous 3 x Tg mouse model assessed as escape latency time at 30 mg/kg, po administered daily for 2.2 months and measured after 60 days of treatment by Passive avoidance test (reference value: 40.6 +/- 6 sec); format: functional; conditions: 1606 h
[34] = Plasma concentration in Sprague-Dawley rat at 30 mg/kg, po measured at Tmax; format: ADME, organism-based

C[C@@H](O)CNc1nccc(-n2c(CC#N)cnc2-c2ccc(Cl)c(Cl)c2)n1
IC50 [1]: 6760 nM

N#CCc1cnc(C2=CC3OCOC3C=C2)n1-c1ccnc(N[C@H]2CCCN(C(=O)C3CC3)C2)n1 (stereo partly drawn)
IC50 [1]: 55 nM

CC(C)(C)C(=O)N1CCC[C@H](Nc2nccc(-n3c(CC#N)cnc3-c3ccc(Cl)c(Cl)c3)n2)C1
IC50 [1]: 8 nM | IC50 [2]: 81 nM | IC50 [3]: 444 nM

Oc1ccc(/C=C/c2cc(O)cc(O)c2)cc1
Activity (Cortical neurone [4]): Active

Cc1ccc(-c2ncn(-c3ccc(Nc4nccc(-c5cccc(N6CCOCC6)c5)n4)cc3)n2)cn1
Activity (Cortical neurone [4]): inactive

N#CCc1cnc(-c2ccc3ccccc3n2)n1-c1ccnc(NC2CCOCC2)n1
IC50 [1]: 13500 nM

N#CCc1cnc(-c2ccc(Cl)c(Cl)c2)n1-c1ccnc(N[C@H]2CCCN(C(=O)NC3CC3)C2)n1
IC50 [1]: 5.3 nM | IC50 [2]: 55.8 nM | IC50 [3]: 513 nM

NC(=O)N1Cc2nc(-c3ccc(Cl)c(Cl)c3)n(-c3ccnc(N[C@@H]4CCN(C(=O)C5CC5)C4)n3)c2C1
IC50 [5]: > 3 µM

C[C@@H](O)CNc1nccc(-n2c(CC#N)cnc2-c2ccc(F)c(C(F)(F)F)c2)n1
IC50 [1]: > 10000 nM

N#CCc1cnc(-c2ccc3ccccc3c2)n1-c1ccnc(N[C@H]2CCCCN(C(=O)C3CC3)C2)n1
IC50 [1]: 24.1 nM | IC50 [2]: 241 nM | IC50 [3]: 962 nM

N#CCc1cnc(C2=CC3OCOC3C=C2)n1-c1ccnc(N[C@H]2CCCNC2)n1 (stereo partly drawn)
IC50 [1]: > 10000 nM

C[C@@H](O)CNc1nccc(-n2c(CC#N)cnc2-c2ccc3ccccc3c2)n1
IC50 [1]: 4960 nM

N#CCc1cnc(-c2ccc3c(c2)CCO3)n1-c1ccnc(N[C@H]2CCCN(C(=O)C3CC3)C2)n1
Time (Mus musculus [6]): 21.55 s | IC50 [1]: 4.1 nM | Activity (Mus musculus [7]): 54.99% | Activity [8]: Non-Toxic | Time (Mus musculus [9]): 22.5 s | Activity (Mus musculus [10]): 53.15% | viability at 20 µM (Cortical neurone [11]): 73.3% | Activity (Mus musculus [12]): 57.14% | Time (Mus musculus [13]): 40.1 s | Time (Mus musculus [14]): 34.7 s | Papp B→A at 1 h, 10 µM [15]: 31.3 ×10⁻⁶ cm/s | AUC at 24 h [16]: 1090 ng·h/mL | IC50 [2]: 44 nM | Activity [17]: Non-Toxic | Activity [18]: Non-Toxic | Papp A→B at 1 h, 10 µM [19]: 11 ×10⁻⁶ cm/s | Drug uptake [20]: 357 ng/g | half-life [21]: 21.6 min | Activity [22]: Non-Toxic | half-life [23]: 68.4 min | viability at 20 µM (Cortical neurone [24]): 46.3% | Tmax [25]: 40.2 min | Activity [26]: Non-Toxic | Cmax [27]: 1240 ng/mL | Time (Mus musculus [28]): 21.91 s | Kp [29]: 0.06 | IC50 [3]: 148 nM | efflux ratio at 1 h, 10 µM [30]: 2.86 | Papp [31]: 8.91 ×10⁻⁶ cm/s | bioavailability [32]: 86.2% | Time (Mus musculus [33]): 71.1 s | Cmax [34]: 5910 ng/mL

N#CCc1cnc(-c2ccc3occc3c2)n1-c1ccnc(N[C@H]2CCCN(C(=O)C3CC3)C2)n1
IC50 [1]: 6.2 nM | IC50 [2]: 268 nM | IC50 [3]: 359 nM

N#CCc1cnc(-c2ccc3ccccc3n2)n1-c1ccnc(NC2CCCCC2)n1
IC50 [1]: > 10000 nM

N#CCc1cnc(-c2ccc(F)c(C(F)(F)F)c2)n1-c1ccnc(N[C@H]2CCCN(C(=O)C3CC3)C2)n1
IC50 [1]: 3280 nM

N#CCc1cnc(-c2ccc3ccccc3n2)n1-c1ccnc(N[C@H]2CCCN(C(=O)C3CC3)C2)n1
IC50 [1]: 396 nM

N#CCc1cnc(-c2ccc3ccccc3c2)n1-c1ccnc(NC2CCCCC2)n1
IC50 [1]: 142 nM

N#CCc1cnc(-c2ccc(Cl)c(Cl)c2)n1-c1ccnc(N[C@H]2CCCNC2)n1
IC50 [1]: 13300 nM
